Data taken from patent publication US5595969A, “Variants of human corticosteroid binding globulin” (Allelix Biopharmaceutical Inc., priority 1995, dated 1997).
Residue numbers refer to the chain shown, from its start.

Legend:
[1] = target: T1, human corticosteroid binding globulin (CBG) variant glycosylated at positions 74 and 238 (Homo sapiens, UniProt P08185, N176Q/N31Q/N330Q/N369Q); assay: Affinity for cortisol by Scatchard analysis, [3H]-cortisol with increasing unlabelled cortisol; conditions: concentrated CHO culture media
T1 construct: in order to isolate a full-length CBG cDNA; made in house; host or cells: CHO cells (CHO pro), measured in culture medium
T1 sequence (P08185 23-405 N31Q/N176Q/N330Q/N369Q): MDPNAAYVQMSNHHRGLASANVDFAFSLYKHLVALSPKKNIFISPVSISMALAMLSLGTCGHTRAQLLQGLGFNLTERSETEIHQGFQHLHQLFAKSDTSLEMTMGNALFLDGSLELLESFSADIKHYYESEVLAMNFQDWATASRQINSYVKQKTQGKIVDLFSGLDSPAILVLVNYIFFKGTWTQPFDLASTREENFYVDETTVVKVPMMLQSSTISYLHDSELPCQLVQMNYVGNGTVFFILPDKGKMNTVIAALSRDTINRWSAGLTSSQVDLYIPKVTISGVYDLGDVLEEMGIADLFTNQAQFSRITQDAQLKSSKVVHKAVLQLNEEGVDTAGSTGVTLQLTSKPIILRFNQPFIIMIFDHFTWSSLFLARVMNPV
Protocol: (§1) The steroid binding capacity of the CBG variants in the culture media was measured by saturation analysis using as a labelled ligand [^3 H]-cortisol (55.8 Ci/mmol) obtained from DuPont, and dextran-coated charcoal as a separation agent as described by Hammond et al. in Clin. Chim. Acta, 1983, 132:101.
(§2) Initially, samples of culture media were added to tubes of PBS containing [^3 H]-cortisol. The mixture in the tubes was vortex mixed and incubated at room temperature for 1 h followed by a further incubation in an ice-water for 15 min. Dextran-coated charcoal (DCC) suspension at 0° C. (1.25 g Norit "A"(Amend Drug and Chemical Co.) and 0.125 g Dextran T-70 (AB Pharmacia) in 0.01 mol/l phosphate-buffered saline containing 0.1% gelatin, pH7) was added to the tubes to bind excess labelled cortisol. The tubes were incubated for […] 0° C. After centrifugation at 3000 X g for 5 min at 4° C. to sediment the DCC, the supernatants were decanted into scintillation counting vials containing 4 ml Aqueous Counting Scintillant (Amersham), which were capped, shaken and counted for 10 min or until 10,000 cpm had accumulated. The binding capacity of the CBG variants was calculated in nmol/L after correction for dilution and the dissociation of bound complexes during the DCC treatment (12% for CBG).
(§3) The affinity of the CBG variants for cortisol was measured using the Scatchard analysis.

[2] = target: T2, human corticosteroid binding globulin (CBG) variant glycosylated solely at position 238 (sites 9, 74, 154, 308, 347 disrupted, Asn to Gln) (Homo sapiens, UniProt P08185, N176Q/N31Q/N330Q/N369Q/N96Q); assay: as above; conditions: concentrated CHO culture media, read-out: K8 (affinity for cortisol) (converted)
T2 construct: made in house; host or cells: CHO cells (CHO pro), measured in culture medium
T2 sequence (P08185 23-405 N31Q/N96Q/N176Q/N330Q/N369Q): T1 sequence (P08185 23-405 N31Q/N176Q/N330Q/N369Q) with N74Q
Protocol: as §1, §2, §3

[3] = target: T3, human corticosteroid binding globulin (CBG), native (Homo sapiens, UniProt P08185); conditions: 4° C., physiological pH; read-out: binding affinity of the natural cortisol ligand for CBG; cited from earlier work
T3 sequence (P08185 23-405): T1 sequence (P08185 23-405 N31Q/N176Q/N330Q/N369Q) with Q9N, Q154N, Q308N, Q347N

[4] = target: T4, human corticosteroid binding globulin (CBG) variant Asn238 to Gln (glycosylation site 238 disrupted) (Homo sapiens, UniProt P08185, N260Q); assay: Steroid binding capacity by saturation analysis with [3H]-cortisol, dextran-coated charcoal; conditions: CHO culture media
T4 construct: made in house; host or cells: CHO cells (CHO pro), measured in culture medium
T4 sequence (P08185 23-405 N260Q): T1 sequence (P08185 23-405 N31Q/N176Q/N330Q/N369Q) with Q9N, Q154N, N238Q, Q308N, Q347N
Protocol: as §1, §2

[5] = target: T5, human corticosteroid binding globulin (CBG) variant Thr240 to Ala (glycosylation site 238 disrupted) (Homo sapiens, UniProt P08185, T262A); assay: as above; conditions: CHO culture media
T5 construct: in order to isolate a full-length CBG cDNA; made in house; host or cells: CHO cells (CHO pro), measured in culture medium
T5 sequence (P08185 23-405 T262A): T1 sequence (P08185 23-405 N31Q/N176Q/N330Q/N369Q) with Q9N, Q154N, T240A, Q308N, Q347N
Protocol: as §1, §2

[6] = target: T6, human corticosteroid binding globulin (CBG) variant glycosylated solely at position 74 (Homo sapiens, UniProt P08185, N176Q/N260Q/N31Q/N330Q/N369Q); assay: Steroid binding of CBG variant with [3H]-cortisol; conditions: CHO culture media
T6 construct: made in house; host or cells: CHO cells (CHO pro), measured in culture medium
T6 sequence (P08185 23-405 N31Q/N176Q/N260Q/N330Q/N369Q): T1 sequence (P08185 23-405 N31Q/N176Q/N330Q/N369Q) with N238Q
Protocol: Chim. Acta, 1983, 132:101. Initially, samples of culture media were added to tubes of PBS containing [^3 H]-cortisol. The mixture in the tubes was vortex mixed and incubated at room temperature for 1 h followed by a further incubation in an ice-water for 15 min. Dextran-coated charcoal (DCC) suspension at 0° C. […] The tubes were incubated for […] 0° C. […] The binding capacity of the CBG variants was calculated in nmol/L after correction for dilution and the dissociation of bound complexes during the DCC treatment (12% for CBG). The affinity of the CBG variants for cortisol was measured using the Scatchard analysis. Prior to conducting the affinity measurement, the culture media was concentrated using *Centricon microconcentrators (Amicon).

C[C@]12CCC(=O)C=C1CC[C@@H]1[C@@H]2[C@@H](O)C[C@@]2(C)[C@H]1CC[C@]2(O)C(=O)CO [cortisol]
K4 (steroid-binding affinity) [1]: 1.9e+08 M⁻¹ | Kd [2]: 9.09 nM | Kd [3]: ~0.7 nM | steroid-binding activity [4]: complete loss of steroid-binding activity | steroid-binding activity [5]: complete loss of steroid-binding activity | steroid-binding activity [6]: no steroid-binding activity
